Peptide text beside a SMILES is read from it.
Assays:
[1] = biological target: T1, FPR1 (Homo sapiens, UniProt P21462); assay: Change in calcium activity by peptide, FPR1 activation effect; format: cell-based; conditions: calcium activity (Fura-2), graded per Table 3, read-out: EC50 for [Ca^2+] FPR1
T1 sequence (P21462 1-350): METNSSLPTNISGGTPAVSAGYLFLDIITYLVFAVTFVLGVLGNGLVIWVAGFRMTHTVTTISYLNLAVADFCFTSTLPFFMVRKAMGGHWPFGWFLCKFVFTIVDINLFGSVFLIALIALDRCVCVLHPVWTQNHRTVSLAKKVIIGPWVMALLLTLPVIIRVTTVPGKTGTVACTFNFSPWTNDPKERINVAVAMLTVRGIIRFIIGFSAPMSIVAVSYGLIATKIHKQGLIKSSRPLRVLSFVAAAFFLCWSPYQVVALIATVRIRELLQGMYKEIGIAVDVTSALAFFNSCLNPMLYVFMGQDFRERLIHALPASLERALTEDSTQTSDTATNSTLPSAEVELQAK
How it was run: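 Calcium flux induced by peptide addition was monitored on a FlexStation 3 plate reader. Before this, cells seeded a day earlier (3×10^5/well) took up the Fura-2 dye for 1 h at 37 °C plus 30 min dark at room temperature.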

[2] = biological target: T2, FPR2 (Homo sapiens, UniProt P25090); assay: Change in calcium activity by peptide (Fura-2) in RBL cells overexpressing FPR2; format: cell-based; conditions: calcium activity (Fura-2), graded per Table 3, read-out: EC50 for [Ca^2+] FPR2
T2 construct: expressed in transfected cells; host or cells: RBL cells (RBL-FPR2)
T2 sequence (P25090 1-351): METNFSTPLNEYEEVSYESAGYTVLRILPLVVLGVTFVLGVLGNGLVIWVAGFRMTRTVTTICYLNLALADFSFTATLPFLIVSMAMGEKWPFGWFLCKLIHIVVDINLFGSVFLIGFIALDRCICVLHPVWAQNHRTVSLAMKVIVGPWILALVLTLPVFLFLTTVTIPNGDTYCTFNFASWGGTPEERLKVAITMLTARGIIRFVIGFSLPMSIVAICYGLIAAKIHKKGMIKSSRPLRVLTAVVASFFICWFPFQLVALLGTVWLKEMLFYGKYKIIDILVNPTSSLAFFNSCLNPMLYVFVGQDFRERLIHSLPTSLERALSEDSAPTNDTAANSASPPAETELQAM
How it was run: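 Peptide-induced intracellular calcium change measured by Fura-2 fluorescence on a plate reader. Cells: RBL line overexpressing FPR2, dye-loaded 1 h at 37 °C then 30 min at RT in dark; peptides from 0.5 mM water/50% DMSO stocks, diluted in HBSS with 20 mM HEPES.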

[3] = system: RAW264.7 cell line; assay: Cytokine inhibition ability: LPS-induced cytokine gene expression in RAW264.7 macrophages; format: cell-based, mouse; conditions: grade of reduction rate of gene expression, peptide 100 nM, LPS 200 ng/mL, 6 hours
Method: The present inventors observed the cytokine inhibition ability of the immunomodulatory peptide candidates prepared according to one example of the present invention. Specifically, to confirm whether the peptides reduce inflammatory responses in cells, changes in cytokine gene expression in cells upon inflammation was measured.
The present inventors used a RAW264.7 cell line, that is, mouse macrophages, and used lipopolysaccharide (LPS; Sigma-Aldrich, #L2630), which is the main component of a gram-negative bacterial cell wall, as a material causing an inflammatory response. A peptide that had been dissolved in water at 100 μM was prepared.
In the present experiment, the cells were cultured in a DMEM (Lonza, #BE12-604F) containing 10% FBS and 1% penicillin-streptomycin under conditions of 37° C. and 5% CO2.
The cells were plated in a 24-well plate (Costar, #3603) at a density of 2.5×10^5 cells/well. After 24 hours, the prepared cells were treated with the peptide at 100 nM. After incubation at 37° C. for 30 minutes, to induce inflammation, 200 ng/mL of LPS was treated. After incubation at 37° C. for 6 hours, the cells in a medium-free state were treated with TRIzol™ (Invitrogen, #15596018) to lyse the cells. Through the given experimental method, RNA was obtained, cDNA was produced using a reverse transcriptase (Promega, #M1705). Afterward, a cytokine expression level was measured using SYBR Green (Enzynomics, RT530) and mouse primers of each inflammatory cytokine gene (TNFα, IL-6, and IL-1β).

SMILES | EC50 [1] [µM] | EC50 [2] [µM] | Cytokine inhibition ability IL-1β [3] | Cytokine inhibition ability IL-6 [3] | Cytokine inhibition ability TNFα [3]
CCCCCCCC(=O)N[C@@H](CCSC)C(=O)N[C@@H](CCCCN)C(=O)N[C@@H](Cc1ccc(O)cc1)C(=O)N[C@@H](CCCCN)C(=O)N1CCC[C@H]1C(=O)N[C@H](CCSC)C(N)=O [Peptide 73] (HELM PEPTIDE1{[CCCCCCCC(=O)[*:2]].M.K.Y.K.P.[dM].[am]}$$$$V2.0) | > 10 | 0.011 to 0.1 | B (61%-80%) | D (21%-40%) | B (61%-80%)
CSCC[C@H](NC(=O)[C@@H](N)CCCNC(=N)N)C(=O)N[C@@H](CCCNC(=N)N)C(=O)N[C@@H](Cc1ccc(O)cc1)C(=O)N[C@@H](Cc1c[nH]c2ccccc12)C(=O)N[C@@H](Cc1ccc(O)cc1)C(=O)N[C@H](CCSC)C(N)=O [Peptide 81] (HELM PEPTIDE1{R.M.R.Y.W.Y.[dM].[am]}$$$$V2.0) | > 10 | < 0.01 | A (81%-100%) | C (41%-60%) | A (81%-100%)
CSCC[C@H](NC(=O)[C@H](CCCNC(=N)N)NC(C)=O)C(=O)N[C@@H](CCCNC(=N)N)C(=O)N[C@@H](Cc1ccc(O)cc1)C(=O)N[C@@H](Cc1c[nH]c2ccccc12)C(=O)N[C@@H](Cc1ccc(O)cc1)C(=O)N[C@H](CCSC)C(N)=O [Peptide 82] (HELM PEPTIDE1{[ac].R.M.R.Y.W.Y.[dM].[am]}$$$$V2.0) | > 10 | < 0.01 | B (61%-80%) | D (21%-40%) | A (81%-100%)
CCCCCCCC(=O)N[C@@H](CCCNC(=N)N)C(=O)N[C@@H](CCSC)C(=O)N[C@@H](CCCNC(=N)N)C(=O)N[C@@H](Cc1ccc(O)cc1)C(=O)N[C@@H](Cc1c[nH]c2ccccc12)C(=O)N[C@@H](Cc1ccc(O)cc1)C(=O)N[C@H](CCSC)C(N)=O [Peptide 84] (HELM PEPTIDE1{[CCCCCCCC(=O)[*:2]].R.M.R.Y.W.Y.[dM].[am]}$$$$V2.0) | > 10 | 0.011 to 0.1 | B (61%-80%) | E (0%-20%) | A (81%-100%)

Second part, led by results:

EC50 [1] [µM] | EC50 [2] [µM] | SMILES | Cytokine inhibition ability IL-1β [3] | Cytokine inhibition ability IL-6 [3] | Cytokine inhibition ability TNFα [3]
1 to 10 | < 0.01 | CSCC[C@H](N)C(=O)N[C@@H](CCCCN)C(=O)N[C@@H](Cc1ccc(O)cc1)C(=O)N[C@@H](Cc1c[nH]c2ccccc12)C(=O)N1CCC[C@H]1C(=O)N[C@H](CCSC)C(N)=O [Peptide 113] (HELM PEPTIDE1{M.K.Y.W.P.[dM].[am]}$$$$V2.0) | D (21%-40%) | B (61%-80%) | D (21%-40%)
1 to 10 | < 0.01 | CSCC[C@H](NC(C)=O)C(=O)N[C@@H](CCCCN)C(=O)N[C@@H](Cc1ccc(O)cc1)C(=O)N[C@@H](Cc1c[nH]c2ccccc12)C(=O)N1CCC[C@H]1C(=O)N[C@H](CCSC)C(N)=O [Peptide 114] (HELM PEPTIDE1{[ac].M.K.Y.W.P.[dM].[am]}$$$$V2.0) | B (61%-80%) | E (0%-20%) | A (81%-100%)
1 to 10 | < 0.01 | CCCC(=O)N[C@@H](CCSC)C(=O)N[C@@H](CCCCN)C(=O)N[C@@H](Cc1ccc(O)cc1)C(=O)N[C@@H](Cc1c[nH]c2ccccc12)C(=O)N1CCC[C@H]1C(=O)N[C@H](CCSC)C(N)=O [Peptide 115] (HELM PEPTIDE1{[CCCC(=O)[*:2]].M.K.Y.W.P.[dM].[am]}$$$$V2.0) | B (61%-80%) | B (61%-80%) | C (41%-60%)
1 to 10 | 0.011 to 0.1 | CCCCCCCC(=O)N[C@@H](CCSC)C(=O)N[C@@H](CCCCN)C(=O)N[C@@H](Cc1ccc(O)cc1)C(=O)N[C@@H](Cc1c[nH]c2ccccc12)C(=O)N1CCC[C@H]1C(=O)N[C@H](CCSC)C(N)=O [Peptide 116] (HELM PEPTIDE1{[CCCCCCCC(=O)[*:2]].M.K.Y.W.P.[dM].[am]}$$$$V2.0) | B (61%-80%) | B (61%-80%) | B (61%-80%)

From patent US20250361268A1, “NOVEL ANTI-INFLAMMATORY PEPTIDE AND USE THEREOF” (NOVACELL TECHNOLOGY INC., priority 2022, published 2025)
